pIC50: −log10 of the molar value.
What follows are molecules tested against human DGAT2 (Homo sapiens (Human), UniProt Q96PD7) (assay: DGAT2 Enzymatic Activity Assay). Conditions: Human DGAT2 IC50, hDGAT2 membrane prep from Sf-9 cells; 13C18-triolein product by LC/MS/MS.
Sequence of human DGAT2 (Q96PD7 whole entry): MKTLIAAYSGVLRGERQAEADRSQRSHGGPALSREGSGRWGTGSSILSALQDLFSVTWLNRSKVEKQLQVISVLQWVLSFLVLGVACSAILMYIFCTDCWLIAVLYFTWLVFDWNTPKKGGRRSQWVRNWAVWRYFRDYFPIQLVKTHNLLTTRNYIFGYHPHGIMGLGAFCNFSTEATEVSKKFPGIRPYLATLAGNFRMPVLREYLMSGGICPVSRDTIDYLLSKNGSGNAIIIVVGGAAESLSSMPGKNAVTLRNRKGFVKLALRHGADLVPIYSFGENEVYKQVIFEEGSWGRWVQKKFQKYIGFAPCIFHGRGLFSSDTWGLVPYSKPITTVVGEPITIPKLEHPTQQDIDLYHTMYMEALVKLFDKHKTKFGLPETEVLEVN
Experimental: Sf-9 insect cells were maintained in Grace's insect cell culture medium with 10% heated-inactivated fetal bovine serum, 1% Pluronic F-68 and 0.14 μg/ml Kanamycine sulfate at 27° C. in a shaker incubator. After infection with untagged baculovirus expressing human DGAT2 (hDGAT2) at multiplicity of infection (MOI) 3 for 48 hours, cells were harvested. Cell pellets were suspended in buffer containing 10 mM Tris-HCl pH 7.5, 1 mM EDTA, 250 mM sucrose and Complete Protease Inhibitor Cocktail (Sigma Aldrich), and sonicated on ice. Cell debris were removed by centrifugation at 2000×g for 15 minutes. Membrane fractions were isolated by ultracentrifugation (100,000×g), resuspended in the same buffer, and frozen (−80° C.) for later use. The protein concentration was determined with the Pierce™ BCA Protein Assay Kit (Thermo Fisher Scientific).
LC/MS/MS analyses were performed using Thermal Fisher's LX4-TSQ Vantage system. This system consists of an Agilent binary high-performance liquid chromatography (HPLC) pump and a TSQ Vantage triple quadrupole MS/MS instrument. For each sample, 2 μL samples from the top organic layer of in-plate liquid-liquid extraction were injected onto a Thermo Betabasic C4 column (2.1 mm×20 mm, 5 μm particle size). The samples were then eluted using the following conditions; mobile phase: Isopropanol: acetonitrile/10 mM ammonium formate=50/35/15 (v/v/v), flow rate: 0.8 mL/min, temperature: 25° C. Data was acquired in positive mode using a heated electrospray ionization (HESI) interface. […] The peak area was integrated by Xcalibur Quan software. The ratio between the ^13C18 triolein generated in the reaction and spiked in internal standard ^13C21-triolein was used to generate percentage inhibition and IC50 values. […] DGAT2 activity was determined by measuring the amount of enzymatic product ^13C18-triolein (^13C-1,2,3-Tri(cis-9-octadecenoyl)glycerol) using the membrane prep mentioned above. The assay was carried out in ABgene 384-well assay plates in a final volume of 25 μL at rt.

Q: CC1(NC(=O)c2nc3ncc(Oc4ncccc4OCC(F)(F)F)cc3o2)CCS(=O)(=O)CC1 [Example 98, N-(4-methyl-1,1-dioxidotetrahydro-2H-thiopyran-4-yl)-6-((3-(2,2,2-trifluoroethoxy)pyridin-2-yl)oxy)oxazolo[4,5-b]pyridine-2-carboxamide] was tested. Which pIC50 did it give?
A: The pIC50 was 6.17.

Q: With Cn1c(C(=O)NC2(C)CCS(=O)(=O)CC2)nc2ccc(Oc3ncc(Cl)cc3OCC(F)F)nc21 [Example 28, 5-((5-Chloro-3-(2,2-difluoroethoxy)pyridin-2-yl)oxy)-3-methyl-N-(4-methyl-1,1-dioxidotetrahydro-2H-thiopyran-4-yl)-3H-imidazo[4,5-b]pyridine-2-carboxamide] as the molecule, how does the pIC50 read?
A: The pIC50 was 8.89.

Q: Cn1c(C(=O)NC2(C)CCS(=O)(=O)CC2)nc2ccc(OCC(OCC(F)F)C(F)(F)F)nc21 (single isomer, unassigned) [Example 64a, 5-[2-(2,2-difluoroethoxy)-3,3,3-trifluoro-propoxy]-3-methyl-N-(4-methyl-1,1-dioxo-thian-4-yl)imidazo[4,5-b]pyridine-2-carboxamide] was tested. Which pIC50 did it give?
A: Its pIC50 is 5.78.

Q: Cn1c(C(=O)NC2(C)CCS(=O)(=O)CC2)nc2ccc(OCC(CC(F)(F)F)OC(F)F)nc21 (single isomer, unassigned) [Example 62a, 5-[2-(difluoromethoxy)-4,4,4-trifluoro-butoxy]-3-methyl-N-(4-methyl-1,1-dioxo-thian-4-yl)imidazo[4,5-b]pyridine-2-carboxamide] was tested. Which pIC50 did it give?
A: The pIC50 was 5.88.

Q: How did the pIC50 turn out when Cn1c(C(=O)NC2(C)CCS(=O)(=O)CC2)nc2c(Cl)c(Oc3ncc(Cl)cc3OCC(F)(F)F)ccc21 [Example 24, 4-Chloro-5-((5-chloro-3-(2,2,2-trifluoroethoxy)pyridin-2-yl)oxy)-1-methyl-N-(4-methyl-1,1-dioxidotetrahydro-2H-thiopyran-4-yl)-1H-benzo[d]imidazole-2-carboxamide] was run?
A: Its pIC50 is 7.05.

Q: How did the pIC50 turn out when Cn1c(C(=O)NC2(C)CCS(=O)(=O)CC2)nc2ccc(Oc3ncc(Cl)cc3OCC(F)(F)F)c(F)c21 [Example 21, 6-((5-Chloro-3-(2,2,2-trifluoroethoxy)pyridin-2-yl)oxy)-7-fluoro-1-methyl-N-(4-methyl-1,1-dioxidotetrahydro-2H-thiopyran-4-yl)-1H-benzo[d]imidazole-2-carboxamide] was run?
A: Its pIC50 is 8.64.

Q: How did the pIC50 turn out when Cn1c(C(=O)NC2(C)CCS(=O)(=O)CC2)nc2ccc(OCC(OCC(F)F)C(F)F)nc21 (single isomer, unassigned) [Example 65a, 5-[2-(2,2-difluoroethoxy)-3,3-difluoro-propoxy]-3-methyl-N-(4-methyl-1,1-dioxo-thian-4-yl)imidazo[4,5-b]pyridine-2-carboxamide] was run?
A: Its pIC50 is 6.67.

Q: With Cn1c(C(=O)NC2(C)CCS(=O)(=O)CC2)nc2ccc(OCC(CC(F)(F)F)OCC(F)F)nc21 (single isomer, unassigned) [Example 63a, 5-[2-(2,2-difluoroethoxy)-4,4,4-trifluoro-butoxy]-3-methyl-N-(4-methyl-1,1-dioxo-thian-4-yl)imidazo[4,5-b]pyridine-2-carboxamide] as the molecule, how does the pIC50 read?
A: Its pIC50 is 7.30.

Q: With Cn1c(C(=O)NC2(C)CCS(=O)(=O)CC2)nc2ccc(OCC(OCC(F)F)C(F)(F)F)nc21 (single isomer, unassigned) [Example 64b, 5-[2-(2,2-difluoroethoxy)-3,3,3-trifluoro-propoxy]-3-methyl-N-(4-methyl-1,1-dioxo-thian-4-yl)imidazo[4,5-b]pyridine-2-carboxamide] as the molecule, how does the pIC50 read?
A: The pIC50 was 8.48.

Q: With Cn1c(C(=O)NC2(C)CCS(=O)(=O)CC2)nc2cnc(Oc3ncc(Cl)cc3OCC(F)F)c(F)c21 [Example 76, 6-[[5-Chloro-3-(2,2-difluoroethoxy)-2-pyridyl]oxy]-7-fluoro-1-methyl-N-(4-methyl-1,1-dioxo-thian-4-yl)imidazo[4,5-c]pyridine-2-carboxamide] as the molecule, how does the pIC50 read?
A: Its pIC50 is 8.48.

Same assay, conditions: read-out: Human DGAT2 IC50; hDGAT2 membrane prep from Sf-9 cells; 13C18-triolein product by LC/MS/MS

Q: How did the pIC50 turn out when CC1(NC(=O)c2nc3ccc(Oc4ncccc4OCC(F)(F)F)cc3o2)CCS(=O)(=O)CC1 [Example 2, N-(4-methyl-1,1-dioxo-thian-4-yl)-6-[[3-(2,2,2-trifluoroethoxy)-2-pyridyl]oxy]-1,3-benzoxazole-2-carboxamide] was run?
A: Its pIC50 is 7.33.

Q: With Cn1c(C(=O)NC2(C)CCS(=O)(=O)CC2)nc2ccc(Oc3ncccc3OCC(F)(F)F)nc21 [Example 34, 3-methyl-N-(4-methyl-1,1-dioxidotetrahydro-2H-thiopyran-4-yl)-5-((3-(2,2,2-trifluoroethoxy)pyridin-2-yl)oxy)-3H-imidazo[4,5-b]pyridine-2-carboxamide] as the molecule, how does the pIC50 read?
A: The pIC50 was less than 6.96.

Q: With CC1(NC(=O)c2nc3nc(Oc4ncc(Cl)cc4OCC(F)F)ccc3n2CC2(F)COC2)CCS(=O)(=O)CC1 [Example 56, 5-((5-chloro-3-(2,2-difluoroethoxy)pyridin-2-yl)oxy)-1-((3-fluorooxetan-3-yl)methyl)-N-(4-methyl-1,1-dioxidotetrahydro-2H-thiopyran-4-yl)-1H-imidazo[4,5-b]pyridine-2-carboxamide] as the molecule, how does the pIC50 read?
A: Its pIC50 is 7.29.

Q: O=C(N[C@H]1CCCC(F)(F)[C@@H]1O)c1nc2ccc(Oc3ncc(Cl)cc3OCC(F)F)nc2s1 [Example 96, 5-((5-chloro-3-(2,2-difluoroethoxy)pyridin-2-yl)oxy)-N-((1S,2R)-3,3-difluoro-2-hydroxycyclohex-yl)thiazolo[5,4-b]pyridine-2-carboxamide] was tested. Which pIC50 did it give?
A: The pIC50 was 8.48.

Q: CCC(COc1ccc2nc(C(=O)NC3(C)CCS(=O)(=O)CC3)n(C)c2n1)OCC(C)(F)F (centres unmarked) [Example 61, 5-[2-(2,2-difluoropropoxy)butoxy]-3-methyl-N-(4-methyl-1,1-dioxo-thian-4-yl)imidazo[4,5-b]pyridine-2-carboxamide] was tested. Which pIC50 did it give?
A: Its pIC50 is 7.36.

Q: Cn1c(C(=O)NC2(C)CCS(=O)(=O)CC2)nc2cnc(Oc3ncc(Cl)cc3OCC(C)(F)F)cc21 [Example 67, 6-[[5-chloro-3-(2,2-difluoropropoxy)-2-pyridyl]oxy]-1-methyl-N-(4-methyl-1,1-dioxo-thian-4-yl)imidazo[4,5-c]pyridine-2-carboxamide] was tested. Which pIC50 did it give?
A: The pIC50 was 7.62.

Q: With Cn1c(C(=O)NC2(C)CCS(=O)(=O)CC2)nc2ccc(Oc3ncc(F)cc3OCC(C)(F)F)nc21 [Example 32, 5-[[3-(2,2-difluoropropoxy)-5-fluoro-2-pyridyl]oxy]-3-methyl-N-(4-methyl-1,1-dioxo-thian-4-yl)imidazo[4,5-b]pyridine-2-carboxamide] as the molecule, how does the pIC50 read?
A: The pIC50 was 6.63.

Q: How did the pIC50 turn out when Cc1cc2nc(C(=O)NC3(C)CCS(=O)(=O)CC3)n(C)c2nc1Oc1ncc(F)cc1OCC(F)F [Example 48, 5-[[3-(2,2-difluoroethoxy)-5-fluoro-2-pyridyl]oxy]-3,6-dimethyl-N-(4-methyl-1,1-dioxo-thian-4-yl)imidazo[4,5-b]pyridine-2-carboxamide] was run?
A: The pIC50 was 8.20.

Q: How did the pIC50 turn out when Cc1cc2nc(C(=O)NC3(C)CCS(=O)(=O)CC3)n(C)c2nc1Oc1ncc(F)cc1OCC(F)(F)F [Example 46, 5-((5-fluoro-3-(2,2,2-trifluoroethoxy)pyridin-2-yl)oxy)-3,6-dimethyl-N-(4-methyl-1,1-dioxido-tetrahydro-2H-thiopyran-4-yl)-3H-imidazo[4,5-b]pyridine-2-carboxamide] was run?
A: Its pIC50 is 8.20.

Q: Cc1cc2nc(C(=O)NC3(C)CCS(=O)(=O)CC3)n(C)c2nc1Oc1ncc(F)cc1OCC(C)(F)F [Example 47, 5-[[3-(2,2-difluoropropoxy)-5-fluoro-2-pyridyl]oxy]-3,6-dimethyl-N-(4-methyl-1,1-dioxo-thian-4-yl)imidazo[4,5-b]pyridine-2-carboxamide] was tested. Which pIC50 did it give?
A: The pIC50 was 7.10.

Q: O=C(N[C@H]1CCOC1)c1nc2ccc(Oc3ncccc3OCC(F)(F)F)cc2s1 [Example 93, N-[(3S)-tetrahydrofuran-3-yl]-6-[[3-(2,2,2-trifluoroethoxy)-2-pyridyl]oxy]-1,3-benzothiazole-2-carboxamide] was tested. Which pIC50 did it give?
A: Its pIC50 is 6.33.

Q: How did the pIC50 turn out when CC1(NC(=O)c2nc3ccc(Oc4ncc(Cl)cc4OCC(F)F)nc3s2)CS(=O)(=O)C1 [Example 95] was run?
A: Its pIC50 is 8.00.

Q: How did the pIC50 turn out when Cc1c(Oc2ncc(F)cc2OCC(F)(F)F)ncc2nc(C(=O)NC3(C)CCS(=O)(=O)CC3)n(C)c12 [Example 79, 6-[[5-fluoro-3-(2,2,2-trifluoroethoxy)-2-pyridyl]oxy]-1,7-dimethyl-N-(4-methyl-1,1-dioxo-thian-4-yl)imidazo[4,5-c]pyridine-2-carboxamide] was run?
A: The pIC50 was 7.24.

Q: With CO[C@]1(C(F)(F)F)C[C@@H](NC(=O)c2nc3ccc(Oc4ncc(Cl)cc4OCC(F)(F)F)cc3o2)C1 [Example 7, 6-[[5-chloro-3-(2,2,2-trifluoroethoxy)-2-pyridyl]oxy]-N-[3-methoxy-3-(trifluoromethyl)cyclobutyl]-1,3-benzoxazole-2-carboxamide] as the molecule, how does the pIC50 read?
A: Its pIC50 is 5.85.

Q: With Cn1c(C(=O)NC2(C)CS(=O)(=O)C2)nc2cnc(Oc3ncc(Cl)cc3OCC(F)F)cc21 [Example 70, 6-[[5-chloro-3-(2,2-difluoroethoxy)-2-pyridyl]oxy]-1-methyl-N-(3-methyl-1,1-dioxo-thietan-3-yl)imidazo[4,5-c]pyridine-2-carboxamide] as the molecule, how does the pIC50 read?
A: Its pIC50 is 7.96.

Q: With Cn1c(C(=O)NC2(C)CS(=O)(=O)C2)nc2cnc(Oc3ncc(F)cc3OCC(F)F)cc21 [Example 71, 6-[[3-(2,2-difluoroethoxy)-5-fluoro-2-pyridyl]oxy]-1-methyl-N-(3-methyl-1,1-dioxo-thietan-3-yl)imidazo[4,5-c]pyridine-2-carboxamide] as the molecule, how does the pIC50 read?
A: Its pIC50 is 6.57.

Q: Cn1c(C(=O)NC2(C)CCS(=O)(=O)CC2)nc2cc(F)c(Oc3ncc(F)cc3OCC(C)(F)F)nc21 [Example 43, 5-[[3-(2,2-difluoropropoxy)-5-fluoro-2-pyridyl]oxy]-6-fluoro-3-methyl-N-(4-methyl-1,1-dioxo-thian-4-yl)imidazo[4,5-b]pyridine-2-carboxamide] was tested. Which pIC50 did it give?
A: Its pIC50 is 7.47.

Q: CC1(NC(=O)c2nc3nc(Oc4ncc(Cl)cc4OCC(F)F)ccc3n2CC(F)F)CCS(=O)(=O)CC1 [Example 53, 5-((5-chloro-3-(2,2-difluoroethoxy)pyridin-2-yl)oxy)-1-(2,2-difluoroethyl)-N-(4-methyl-1,1-dioxidotetrahydro-2H-thiopyran-4-yl)-1H-imidazo[4,5-b]pyridine-2-carboxamide] was tested. Which pIC50 did it give?
A: The pIC50 was 6.87.

Q: With Cc1nc2nc(C(=O)NC3(C)CCS(=O)(=O)CC3)n(C)c2cc1Oc1ncc(F)cc1OCC(F)(F)F [Example 87, 6-[[5-fluoro-3-(2,2,2-trifluoroethoxy)-2-pyridyl]oxy]-1,5-dimethyl-N-(4-methyl-1,1-dioxo-thian-4-yl)imidazo[4,5-b]pyridine-2-carboxamide] as the molecule, how does the pIC50 read?
A: Its pIC50 is 7.60.
